Results taken from patent US20260265244A1, “HETEROCYCLIC COMPOUNDS AS STING ANTAGONISTS” (Boehringer Ingelheim International GmbH, priority 2022, published 2026).

What follows are compounds tested against T1, cGAMP binding domain of wild-type (GRR) human STING, residues 155-341 (Homo sapiens, UniProt Q86WV6, H232R) (assay: Increase of stability of STING protein against thermal denaturation, Differential Scanning Fluorimetry (DSF)).
T1 construct: His-TEV-hSTING (WT); TEV protease cleavage site (N); made in house; host or cells: E. coli BL21 DE3
T1 sequence (Q86WV6 with tags, fused parts or gaps H232R): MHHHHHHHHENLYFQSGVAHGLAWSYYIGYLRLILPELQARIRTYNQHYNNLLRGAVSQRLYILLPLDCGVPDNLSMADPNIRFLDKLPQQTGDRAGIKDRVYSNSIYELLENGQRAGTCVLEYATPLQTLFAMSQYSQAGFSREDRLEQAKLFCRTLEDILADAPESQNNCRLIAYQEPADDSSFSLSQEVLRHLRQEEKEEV
Summary of the method: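 3 µM His-tagged protein with 100 uM compound, 5×SYPRO Orange, 2% DMSO in 20 mM Tris, 150 mM NaCl, pH7.5; 15–95 °C ramp in 0.5 °C steps (15 s/cycle). Tm from Boltzmann fit of the dye melt curve, duplicates averaged, repeated if SD>1.5 °C; ΔTm = Tm with compound minus Tm of protein alone.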

Row | Compound | DSF [K]
1 | [2H][C@](O)(Cn1cc2c(-c3nn(-c4cc5cn(C)nc5nc4C)c(C)c3C(C)C)cccc2n1)c1ccccc1 [Example 3, (1R)-2-[4-(1-{2,6-dimethyl-2H-pyrazolo[3,4-b]pyridin-5-yl}-5-methyl-4-(propan-2-yl)-1H-pyrazol-3-yl)-2H-indazol-2-yl]-1-phenyl(1-^2H)ethan-1-ol] | 28
2 | Cc1nc2nn(C)cc2cc1-n1nc(-c2cccc3nn(C[C@H](OCCC(C)(C)O)c4ccccc4)cc23)c(C(C)C)c1C [Example 74, 4-[(1R)-2-[4-(1-{2,6-dimethyl-2H-pyrazolo[3,4-b]pyridin-5-yl}-5-methyl-4-(propan-2-yl)-1H-pyrazol-3-yl)-2H-indazol-2-yl]-1-phenylethoxy]-2-methylbutan-2-ol] | 25
3 | COC(C)c1nc2nn(C)cc2cc1-n1nc(-c2cccc3nn(C[C@H](O)c4ccccc4)cc23)c(C(C)C)c1C (stereo partly shown) [Example 75] | 28
4 | Cc1c(C(C)C)c(-c2cccc3nn(C[C@H](O)c4ccccc4)cc23)nn1-c1ccn2c(C(F)F)nnc2c1C1CC1 [Example 76] | 26
5 | Cc1nc2nn(C)cc2cc1-n1nc(-c2cccc3nn(C[C@H](OCCF)c4ccccc4)cc23)c(C(C)C)c1C [Example 78, 4-(1-{2,6-dimethyl-2H-pyrazolo[3,4-b]pyridin-5-yl}-5-methyl-4-(propan-2-yl)-1H-pyrazol-3-yl)-2-[(2R)-2-(2-fluoroethoxy)-2-phenylethyl]-2H-indazole] | 24
6 | C=CCO[C@@H](Cn1cc2c(-c3nn(-c4cc5cn(C)nc5nc4C)c(C)c3C(C)C)cccc2n1)c1ccccc1 [Example 79, 4-(1-{2,6-dimethyl-2H-pyrazolo[3,4-b]pyridin-5-yl}-5-methyl-4-(propan-2-yl)-1H-pyrazol-3-yl)-2-[(2R)-2-phenyl-2-(prop-2-en-1-yloxy)ethyl]-2H-indazole] | 23
7 | Cc1c(C(C)C)c(-c2cccc3nn(C[C@H](O)c4ccccc4)cc23)nn1-c1cc2cn(C)nc2nc1C1(C)CC1 [Example 80, (1R)-2-(4-{5-methyl-1-[2-methyl-6-(1-methylcyclopropyl)-2H-pyrazolo[3,4-b]pyridin-5-yl]-4-(propan-2-yl)-1H-pyrazol-3-yl}-2H-indazol-2-yl)-1-phenylethan-1-ol] | 26
8 | CCCO[C@@H](Cn1cc2c(-c3nn(-c4cc5cn(C)nc5nc4C)c(C)c3C(C)C)cccc2n1)c1ccccc1 [Example 81, 4-(1-{2,6-dimethyl-2H-pyrazolo[3,4-b]pyridin-5-yl}-5-methyl-4-(propan-2-yl)-1H-pyrazol-3-yl)-2-[(2R)-2-phenyl-2-propoxyethyl]-2H-indazole] | 22
9 | Cc1cc([C@@H](O)Cn2cc3c(-c4nn(-c5cc6cn(C)nc6nc5C)c(C)c4C(C)C)cccc3n2)ccn1 [Example 82, (1R)-2-[4-(1-{2,6-dimethyl-2H-pyrazolo[3,4-b]pyridin-5-yl}-5-methyl-4-(propan-2-yl)-1H-pyrazol-3-yl)-2H-indazol-2-yl]-1-(2-methylpyridin-4-yl)ethan-1-ol] | 27
10 | Cc1nc2nn(C)cc2cc1-n1nc(-c2cccc3nn(CC(O)C4CCCCC4)cc23)c(C(C)C)c1C (stereo not shown) [Example 83, 1-cyclohexyl-2-[4-(1-{2,6-dimethyl-2H-pyrazolo[3,4-b]pyridin-5-yl}-5-methyl-4-(propan-2-yl)-1H-pyrazol-3-yl)-2H-indazol-2-yl]ethan-1-ol] | 24
11 | CNc1nc2nn(C)cc2cc1-n1nc(-c2cccc3nn(C[C@H](O)c4ccccc4)cc23)c(C(C)C)c1C [Example 84, (1R)-2-(4-{5-methyl-1-[2-methyl-6-(methylamino)-2H-pyrazolo[3,4-b]pyridin-5-yl]-4-(propan-2-yl)-1H-pyrazol-3-yl}-2H-indazol-2-yl)-1-phenylethan-1-ol] | 27
12 | COCCO[C@@H](Cn1cc2c(-c3nn(-c4cc5cn(C)nc5nc4C)c(C)c3C(C)C)cccc2n1)c1ccccc1 [Example 85, 4-(1-{2,6-dimethyl-2H-pyrazolo[3,4-b]pyridin-5-yl}-5-methyl-4-(propan-2-yl)-1H-pyrazol-3-yl)-2-[(2R)-2-(2-methoxyethoxy)-2-phenylethyl]-2H-indazole] | 23
13 | Cc1c(-n2nc(-c3cccc4nn(C[C@H](O)c5ccccc5)cc34)c(C(C)C)c2C)ccn2c(C)nnc12 [Example 86, (1R)-2-[4-(1-{3,8-dimethyl-[1,2,4]triazolo[4,3-a]pyridin-7-yl}-5-methyl-4-(propan-2-yl)-1H-pyrazol-3-yl)-2H-indazol-2-yl]-1-phenylethan-1-ol] | 28
14 | Cc1c(C(C)C)c(-c2cccc3nn(C[C@H](O)c4ccccc4)cc23)nn1-c1cc2cn(C)nc2nc1N(C)C [Example 87, (1R)-2-(4-{1-[6-(dimethylamino)-2-methyl-2H-pyrazolo[3,4-b]pyridin-5-yl]-5-methyl-4-(propan-2-yl)-1H-pyrazol-3-yl}-2H-indazol-2-yl)-1-phenylethan-1-ol] | 24
15 | Cc1nc2nn(C)cc2cc1-n1nc(-c2cccc3nn(CC(O)c4ccc(Br)cc4)cc23)c(C(C)C)c1C (stereo not shown) [Example 88, 1-(4-Bromophenyl)-2-[4-(1-{2,6-dimethyl-2H-pyrazolo[3,4-b]pyridin-5-yl}-5-methyl-4-(propan-2-yl)-1H-pyrazol-3-yl)-2H-indazol-2-yl]ethan-1-ol] | 25
16 | Cc1c(C(C)C)c(-c2cccc3nn(C[C@H](O)c4ccccc4)cc23)nn1-c1cc2cn(C)nc2nc1C(C)(C)O [Example 89, 2-[5-(3-{2-[(2R)-2-hydroxy-2-phenylethyl]-2H-indazol-4-yl}-5-methyl-4-(propan-2-yl)-1H-pyrazol-1-yl)-2-methyl-2H-pyrazolo[3,4-b]pyridin-6-yl]propan-2-ol] | 24
17 | Cn1cc2cc(-c3nc(-c4cccc5nn(C[C@H](O)c6ccc(OCC#N)cc6)cc45)c(C4CC4)n3C)c(C3CC3)nc2n1 [Example 90, 2-{4-[(1R)-2-[4-(5-cyclopropyl-2-{6-cyclopropyl-2-methyl-2H-pyrazolo[3,4-b]pyridin-5-yl}-1-methyl-1H-imidazol-4-yl)-2H-indazol-2-yl]-1-hydroxyethyl]phenoxy} acetonitrile] | 29
18 | Cn1cc([C@@H](O)Cn2cc3c(-c4nc(-c5cc6cn(C)nc6nc5C5CC5)n(C)c4C4CC4)cccc3n2)cn1 [Example 91, (1R)-2-[4-(5-cyclopropyl-2-{6-cyclopropyl-2-methyl-2H-pyrazolo[3,4-b]pyridin-5-yl}-1-methyl-1H-imidazol-4-yl)-2H-indazol-2-yl]-1-(1-methyl-1H-pyrazol-4-yl)ethan-1-ol] | 29
19 | Cc1nc2nn(C)cc2cc1-n1nc(-c2cccc3nn(C[C@H](O)c4ccccc4)cc23)c(C2(C)CC2)c1C [Example 92, (1R)-2-[4-(1-{2,6-Dimethyl-2H-pyrazolo[3,4-b]pyridin-5-yl}-5-methyl-4-(1-methylcyclopropyl)-1H-pyrazol-3-yl)-2H-indazol-2-yl]-1-phenylethan-1-ol] | 24
20 | CCc1c(-c2cccc3nn(C[C@H](O)c4ccccc4)cc23)nn(-c2cc3cn(C)nc3nc2C)c1CC [Example 93, (1R)-2-[4-(1-{2,6-dimethyl-2H-pyrazolo[3,4-b]pyridin-5-yl}-4,5-diethyl-1H-pyrazol-3-yl)-2H-indazol-2-yl]-1-phenylethan-1-ol] | 26
21 | Cc1c(-n2nc(-c3cccc4nn(C[C@H](O)c5ccccc5)cc34)c(C(C)C)c2C)ccn2c(C)cnc12 [Example 94, (1R)-2-[4-(1-{3,8-dimethylimidazo[1,2-a]pyridin-7-yl}-5-methyl-4-(propan-2-yl)-1H-pyrazol-3-yl)-2H-indazol-2-yl]-1-phenylethan-1-ol] | 27
22 | Cc1nc2nn(C)cc2cc1-n1nc(-c2cccc3nn(C[C@H](O)c4ccccc4)cc23)c(C(C)CO)c1C (stereo partly drawn) [Example 95, 2-(1-{2,6-dimethyl-2H-pyrazolo[3,4-b]pyridin-5-yl}-3-{2-[(2R)-2-hydroxy-2-phenylethyl]-2H-indazol-4-yl}-5-methyl-1H-pyrazol-4-yl)propan-1-ol] | 24
